According to US20070166367A1, “Adept or gdept producing acetaldehyde” (priority 2004, published 2007):
Read-outs that look alike come from different tables or passages of the source.

Experiments:
[1] = system: Ad-ADH CMT-64 cells; assay: Ad-ADH ethanol cytotoxicity assay; type: cell-based; settings: for numbers of cells: seeded at 5×10^5 on Day 0, day 2, FIG. 4; for total cell number as % of the starting number: ethanol
Procedure: (§1) Cells were placed into 6 well plates at 5×10^6 per well. After overnight incubation, the cells were washed twice in PBS then incubated with virus (Hela MOI 100, CMT-64 MOI 1000) at 37° C. for 1 hr in 1 ml of serum free media. Following addition of 3 mls more of tissue culture medium the cells were incubated overnight, assayed for ADH activity and used for experiments as below.

[2] = system: Daudi lymphoma cells; assay: acetaldehyde combined with Cisplatin in vitro; type: cell-based
From the text: The results shown are the number of live cells at each time point shown as a % of the number of cells at the start of the expt (ie 100% at time 0 hrs).

[3] = system: CMT-64; assay: in vitro acetaldehyde and cisplatin toxicity assay; type: cell-based; settings: FIG. 2
Procedure: (§2) Standard tissue culture techniques were used to maintain Hela, Daudi, Jurkat, CMT-64 cells in flasks in DMEM+10% FCS in a 37° C. incubator.
(§3) Cell lines subcloned into 25-cm^2 flasks and incubated in media containing dilutions of acetaldehyde, cisplatin or both. Flasks remained sealed during incubation and the media and acetaldehyde/cisplatin were replaced daily. Viable cell counts were made using Trypan blue exclusion and a standard haemocytometer.

[4] = system: Daudi; assay: in vitro acetaldehyde and cisplatin toxicity assay; type: cell-based; settings: higher cell density, 3 days exposure, FIG. 2
Procedure: as §2, §3

[5] = system: Ad-ADH Hela cells; assay: Ad-ADH ethanol cytotoxicity assay; type: cell-based; settings: seeded at 5×10^5 on Day 0, day 2, FIG. 4
Procedure: as §1

[6] = system: CMT-64 cells; settings: ethanol IP for several days, particularly on Day 6, FIG. 5
Procedure: CMT-64 cells are injected s-c into mice and tumour growth allowed to proceed.
Virus described above is introduced into the CMT-64 cells.
Alcohol (ethanol) is injected IP for several days.
Tumour dimensions are monitored thereafter.

[7] = system: Ad-ADH CMT-64 cells
Procedure: (§4) The animal experiment was approved by the Cancer Research UK animal use and safety committee and the Home Office before initiation. On the day prior to injection, 6×10^6 CMT-64 cells were transduced with the Ad-ADH virus in vitro, then on Day 0 adult C57B/6 mice received s-c injections in the flank of 5×10^5 Ad-ADH CMT-64 cells (groups 1 and 2) or mock infected CMT-64 cells (groups 3 and 4) suspended in 100 uL of PBS. On days 0-4 groups 1 and 3 were injected with 500 ul of 12% ethanol (2 g/kg) solution IP and groups 2 and 4 received 500 uL of water IP, there were 6 mice in each group. Tumour volume was estimated twice weekly using the formula: volume=(length×width×width)×(3.142/6).
(§5) Tumour size was measure on Days 6, 10 and 13; the results are shown as the mean and SD from 6 mice per group.

[8] = system: wild type CMT-64 cells; settings: ethanol 2 g/kg IP days 0-4 (group 3)
Procedure: as §4, §5

[9] = chronic exposure to ethanol (4%), +12 weeks; cited from earlier work
[10] = in vivo; cited from earlier work
[11] = cited from earlier work

**Q.** For Cc1cn[nH]c1 [4-MP, 4-methylpyrazole], which “effect on ethanol mediated growth reduction” value ([1]; 4-MP 10 uMol) is on record?
**A.** blocking of this effect

**Q.** What does the source list for N.N.[Cl][Pt][Cl] [cisplatin, Cisplatin]?
**A.** number of live cells as a % of the number of cells at the start ([2]; Cisplatin at 30 μM, 6 hr): 147%; number of live cells as a % of the number of cells at the start ([2]; Cisplatin at 30 μM, 18 hr): 122%; number of live cells as a % of the number of cells at the start ([2]; Cisplatin at 30 μM, 21 hr): 76%; number of live cells as a % of the number of cells at the start ([2]; Cisplatin at 30 μM, 25 hr): 82%; number of live cells as a % of the number of cells at the start ([2]; Cisplatin at 30 μM, 42 hr): 36%; number of live cells as a % of the number of cells at the start ([2]; repeated experiment, +25 hours): 63%; cell number as % of starting number [3]: 80%; cell number as % of starting number [4]: 21%; numbers of cells [1]: 3.75×10^5; numbers of cells [5]: 3.2×10^5

**Q.** Which “cell number as % of non-ethanol exposed controls” value ([1]; 2 days ethanol exposure) does the source give for CCO [ethanol] here?
**A.** 30%

**Q.** And the number of cells ([1]; ethanol 20 mM, day 2, FIG. 3)?
**A.** 3.7×10^5

**Q.** And the “total cell number as % of the starting number” value ([1]; day 2)?
**A.** 74%

**Q.** What about the “total cell number as % of the starting number” value ([1]; day 4) of the same compound?
**A.** 36%

**Q.** And the number of cells ([1]; extended ethanol exposure, day 4)?
**A.** 1.8×10^5

**Q.** And the numbers of cells [1]?
**A.** 3.5×10^5

**Q.** And the numbers of cells [5]?
**A.** 6.2×10^5

**Q.** And the tumour growth [6]?
**A.** significant inhibition of growth

**Q.** What about the “tumour size of one mouse” value ([7]; Day 10 and Day 23, no further increase) of the same compound?
**A.** 0.058 cm3

**Q.** What about the “median size as % of the water treated controls” value ([7]; day 6) of the same compound?
**A.** 30%

**Q.** And the “median size as % of the water treated controls” value ([7]; day 13)?
**A.** 42%

**Q.** What about the “mean size of the tumours” value ([7]; ethanol 2 g/kg IP days 0-4, day 6) of the same compound?
**A.** 0.036 cm^3

**Q.** And the “mean size of the tumours” value ([7]; ethanol 2 g/kg IP days 0-4, day 13)?
**A.** 0.18 cm3

**Q.** What about the mean tumour volumes ([8]; day 6) of the same compound?
**A.** 0.1645 cm^3

**Q.** What about the mean tumour volumes ([8]; day 13) of the same compound?
**A.** 0.514 cm^3

**Q.** And the cardiac toxicity [9]?
**A.** severe myocardial damage

**Q.** And the well tolerated levels [10]?
**A.** 500 to 2500 mg/L

**Q.** What about the “time until blood ethanol levels fell below the limit of detection” value ([11]; IP ethanol injections of 3.7-3.8 g/kg) of the same compound?
**A.** 6 to 7 h

**Q.** And the “rate of ethanol metabolism in mice relative to humans” value ([11]; mouse, in vivo)?
**A.** 5 times
